According to US8343991B2, “Anhydrous crystalline vinflunine salts, method of preparation and use thereof as a drug and means of vinflunine purification” (Pierre Fabre Medicament, priority 2007, dated 2013):

Experiments:
[1] = Comparative stability of amorphous ditartrate and crystalline fumarate, powder form, HPLC analysis; format: physicochemical; conditions: for degradation in powder form: 14 days
Description: Comparative stability of amorphous ditartrate and crystalline fumarate:
1. Raw material: • Batch OP3.0B: amorphous vinflunine ditartrate. • Batch JLM4008400: crystalline vinflunine fumarate.
(§1) 2. Stability conditions: • Stability studies are carried out on the powder form away from light under the following conditions: • closed bottle: 50° C., • open bottle: 40° C., 75% relative humidity. • A measurement is taken at T0 and at T0+14 days.
3. Analytical conditions: • HPLC system: • Column: Sunfire C18, 5 μm, 4.6×250 mm (Waters) temperature maintained at 35° C. • Eluent: CH3CN/MeOH/H2O/KH2PO4 400/150/450/6.8 (ml/ml/ml/g) adjusted to pH 7 (with KOH). • Flow rate: 1 ml/min • Detection: 269 nm

[2] = Water content of the powder in the comparative stability study; format: physicochemical
Description: as §1

[3] = T0 + 14 d, 40° C., 75% RH, open bottle, powder away from light
[4] = T0 + 14 d, 50° C., closed bottle, powder away from light
[5] = in the presence of moisture (40° C., 75% RH)
[6] = T0 + 14 d, 40° C., 75% RH, open bottle

Row | Substance | degradation in powder form ([1]; 50° C. (closed bottle)) | HPLC analysis [1, 3] | HPLC analysis [1, 4] | HPLC analysis ([1]; T0, powder, before storage) | degradation in powder form [1, 5] | Water content ([2]; T0) | Water content [2, 6]
1 | vinflunine fumarate [JLM4008400] | less than 0.2% | 99.38% | 99.56% | 99.52% | less than 0.2% | 1.33% | 4.18%
2 | vinflunine ditartrate [OP3.OB] | 2.1% | 98.21% | 97.18% | 99.28% | 1.07% | 6.27% | 10.18%
